Bounds are passed on as bounds.

The source of these data is patent US11518758B2, “Heteroarylaminopyrimidine amide autophagy inhibitors and methods of use thereof” (Deciphera Pharmaceuticals, LLC, priority 2019, dated 2022).

For assay [1], the target named is T1, ULK1 kinase (Homo sapiens, UniProt O75385).
T1 construct: purchased Eurofins 14-959
T1 sequence (O75385 with tags, fused parts or gaps): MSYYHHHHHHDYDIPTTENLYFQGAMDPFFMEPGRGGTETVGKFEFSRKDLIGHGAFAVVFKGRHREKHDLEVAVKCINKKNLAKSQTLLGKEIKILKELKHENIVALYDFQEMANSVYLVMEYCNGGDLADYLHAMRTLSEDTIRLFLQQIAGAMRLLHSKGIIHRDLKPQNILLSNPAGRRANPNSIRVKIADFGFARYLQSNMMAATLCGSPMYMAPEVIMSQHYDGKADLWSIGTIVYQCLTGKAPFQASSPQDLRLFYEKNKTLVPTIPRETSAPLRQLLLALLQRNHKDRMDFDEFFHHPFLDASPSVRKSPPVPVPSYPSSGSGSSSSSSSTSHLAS
Description: Biochemical assay for ULK1.2 (coupled pyruvate kinase/lactate dehydrogenase assay). Conditions: 19 nM ULK1 (Eurofins), myelin basic protein, 1 mM ATP. The method in brief:
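NADH-coupled PK/LDH read-out at 340 nm, run with 19 nM ULK1, 0.25 mg/mL myelin basic protein and 1 mM ATP. Buffer was 100 mM Tris pH 7.5 with 15 mM MgCl2 and 1% DMSO final. Monitoring was continuous for 6 hours at 30° C; rates from the 2-3 h window were converted to percent inhibition and fitted to a four-parameter curve for IC50.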

In assay [2] the test system is phospho-Serine 318 ATG13 (pATG13) in MiaPaCa-2 cells. Description: pATG13 levels of mutant KRas MiaPaCa-2 cells after treatment with ULK inhibitors in combination with trametinib (ELISA). The class given is cell-based, human. The procedure:
Example 178. pATG13 Levels of Mutant KRas MiaPaCa-2 Cells after Treatment with ULK Inhibitors in Combination with Trametinib
(§1) MiaPaCa-2 human pancreatic cancer cells (10000 cells/well) were added to a 384-well tissue-culture treated plate in 50 μL of pre-warmed DMEM medium supplemented with 10% characterized fetal bovine serum (Invitrogen, Carlsbad, Calif.), 100 units/mL penicillin G, 100 μg/mL streptomycin, and 2.5% Horse Serum and allowed to grow overnight at 37° C., 5% CO2, and 95% humidity. The following day, 10 μL of media containing trametinib or DMSO as a control was added to wells. The final concentration of trametinib in wells was 250 nM. A dose response of a test compound (0.6 μL per well) was added. DMSO (0.6 μL) was added to control wells. The plate was briefly shaken to mix wells and then incubated at 37° C. overnight. The next day, the media was aspirated and cells were washed with Dulbecco's Phosphate Buffered Saline (Gibco). Cells were lysed using MPER lysis buffer (Pierce, Rockford, Ill.) containing Halt Phosphatase and Protease Inhibitors (Pierce, Rockford, Ill.) and Phosphatase inhibitor cocktail 2 (Sigma, St. Louis, Mo.) at 4° C. for 10 minutes with shaking.
(§2) Cellular levels of phospho-Serine 318 ATG13 (pATG13) were measured via an ELISA method. Total ATG13 Antibody (Cell Signaling Cat #13273) was used to coat the wells. The plate was incubated at 4° C. overnight and washed with ELISA wash buffer (Biolegend Cat #421601). The wells were then blocked with assay diluent (Biolegend Cat #421203) for 1 hour at room temperature. Plate wells were washed with ELISA wash buffer. Cell lysate was added to wells and incubated at room temperature for 2 hours. Plate wells were washed with ELISA wash buffer. Biotinylated pS318-ATG13 antibody (Rockland Immunochemicals Cat #600-401-C49) was diluted in assay diluent and added to each well and incubated at room temperature for 1 hour. Plate wells were washed with ELISA wash buffer. Streptavidin linked to horseradish peroxidase (Thermo Fisher Cat #21140) was diluted in assay diluent and added to each well and incubated at room temperature for 1 hour. Plate wells were washed with ELISA wash buffer. High sensitivity TMB substrate (Biolegend Cat #421101) was added to each well and incubated at room temperature for 20 minutes. The reaction was stopped with 2N Sulfuric Acid. The plate was analyzed at on a plate reader measuring absorbance at 450 nm and 540 nm (background). Signal was calculated by first subtracting the background absorbance at 540 nm from the absorbance at 450 nm for each well. Next, the background corrected absorbance at 450 nm from blank wells was subtracted from test wells. Data was compared to control wells to determine % ATG13 phosphorylation. GraphPad Prism was used to calculate IC50 values.
Background: In an ELISA, binding on a coated surface is turned into a signal by an enzyme label.

Assay [3] concerns phospho-Serine 318 ATG13 (pATG13), ULK kinase substrate, in A549 (KRAS mutant) cells. Description: pATG13 levels of mutant KRas A549 cells after treatment with ULK inhibitors in combination with trametinib (ELISA). It counts as cell-based, human. Conditions: with 250 nM trametinib. The procedure: Example 177. Cellular Inhibition of ULK Kinase Substrate ATG13 Protein pATG13 Levels of Mutant KRas A549 Cells after Treatment with ULK Inhibitors in Combination with Trametinib
as §1, with “A549 (KRAS mutant)” for “MiaPaCa-2”, “lung” for “pancreatic”, “(6,000” for “(10000”, “G, and” for “G,”, “streptomycin” for “streptomycin, and 2.5% Horse Serum”
as §2

Another assay deals with T2, ULK2 kinase (Homo sapiens, UniProt Q8IYT8).
T2 construct: purchased Eurofins 14-772
T2 sequence (Q8IYT8 with tags, fused parts or gaps): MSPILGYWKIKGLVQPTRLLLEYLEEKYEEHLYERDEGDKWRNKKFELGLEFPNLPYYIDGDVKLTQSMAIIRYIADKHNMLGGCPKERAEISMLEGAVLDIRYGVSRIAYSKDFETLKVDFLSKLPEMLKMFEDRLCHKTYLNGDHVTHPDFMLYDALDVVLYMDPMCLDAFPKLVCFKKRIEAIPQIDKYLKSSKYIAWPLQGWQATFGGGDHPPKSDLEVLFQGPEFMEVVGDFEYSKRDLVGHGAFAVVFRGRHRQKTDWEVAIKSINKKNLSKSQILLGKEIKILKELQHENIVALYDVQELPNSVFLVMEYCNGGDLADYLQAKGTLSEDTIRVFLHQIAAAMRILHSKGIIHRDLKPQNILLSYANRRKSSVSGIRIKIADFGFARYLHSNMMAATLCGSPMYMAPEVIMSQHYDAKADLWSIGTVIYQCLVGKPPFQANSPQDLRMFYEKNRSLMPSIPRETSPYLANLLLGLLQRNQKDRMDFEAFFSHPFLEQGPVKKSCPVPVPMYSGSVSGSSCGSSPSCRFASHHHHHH
The assay is described as follows: Biochemical assay for ULK2 (coupled pyruvate kinase/lactate dehydrogenase assay). The settings on record: 9.7 nM ULK2 (Eurofins), myelin basic protein, 1 mM ATP; read-out: ULK2.2. The procedure: Example 176. Biochemical Assay for ULK2
Activity of ULK2 kinase was determined spectroscopically using a coupled pyruvate kinase/lactate dehydrogenase assay that continuously monitors the ATP hydrolysis-dependent oxidation of NADH (e.g., Schindler et al. Science (2000) 289: 1938-1942). Assays were conducted in 384-well plates (100 uL final volume) using 9.7 nM ULK2 (Eurofins CAT #14-772), 0.25 mg/mL myelin basic protein, 1.5 units pyruvate kinase, 2.1 units lactate dehydrogenase, 1 mM phosphoenol pyruvate, 0.28 mM NADH and 1 mM ATP in assay buffer (100 mM Tris, pH 7.5, 15 mM MgCl2, 0.5 mM DTT, 0.1% octyl-glucoside, 0.002% (w/v) BSA, and 0.002% Triton X-100). Inhibition of ULK2 was measured by adding serial diluted test compound (final assay concentration of 1% DMSO). A decrease in absorption at 340 nm was monitored continuously for 6 hours at 30° C. on a multi-mode microplate reader (BioTek). The reaction rate was calculated using the 2-3 h time frame. The reaction rate at each concentration of compound was converted to percent inhibition using controls (i.e. reaction with no test compound and reaction with a known inhibitor) and IC50 values were calculated by fitting a four-parameter sigmoidal curve to the data using Prism (GraphPad software).

Assay [4] concerns the target T3, ULK1 kinase (Homo sapiens, UniProt O75385, E37A/K38A).
T3 construct: (residues 1-283; ID NO: 2); purchased Beryllium
T3 sequence (O75385 1-283 E37A/K38A): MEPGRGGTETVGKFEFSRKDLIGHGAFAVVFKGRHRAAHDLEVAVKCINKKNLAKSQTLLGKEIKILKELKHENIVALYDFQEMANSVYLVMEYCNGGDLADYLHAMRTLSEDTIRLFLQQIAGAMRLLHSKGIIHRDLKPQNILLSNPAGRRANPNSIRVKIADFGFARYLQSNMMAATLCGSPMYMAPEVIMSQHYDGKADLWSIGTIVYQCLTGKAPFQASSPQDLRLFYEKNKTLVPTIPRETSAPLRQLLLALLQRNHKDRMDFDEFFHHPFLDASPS
The assay is described as follows: Biochemical assay for ULK1.3 (coupled pyruvate kinase/lactate dehydrogenase assay). The settings on record: 0.1 nM ULK1 (from Beryllium), peptide substrate, 1 mM ATP. The protocol: Example 175. Biochemical Assay for ULK1.3
Activity of ULK1 kinase was determined spectroscopically using a coupled pyruvate kinase/lactate dehydrogenase assay that continuously monitors the ATP hydrolysis-dependent oxidation of NADH (e.g., Schindler et al. Science (2000) 289: 1938-1942). Assays were conducted in 384-well plates (100 uL final volume) using 0.1 nM ULK1 (from Beryllium), 0.075 mM peptide substrate (YANWLAASIYLDGKKK (SEQ ID NO: 5)), 1.5 units pyruvate kinase, 2.1 units lactate dehydrogenase, 1 mM phosphoenol pyruvate, 0.28 mM NADH and 1 mM ATP in assay buffer (100 mM Tris, pH 7.5, 15 mM MgCl2, 0.5 mM DTT, 0.004% (w/v) BSA, and 0.004% Triton X-100). Inhibition of ULK1 was measured by adding serial diluted test compound (final assay concentration of 1% DMSO). A decrease in absorption at 340 nm was monitored continuously for 6 hours at 30° C. on a multi-mode microplate reader (BioTek). The reaction rate was calculated using the 2-3 h time frame. The reaction rate at each concentration of compound was converted to percent inhibition using controls (i.e. reaction with no test compound and reaction with a known inhibitor) and IC50 values were calculated using software routines in Prism (GraphPad software).

Another assay concerns the target T4, LRRK2 kinase (Homo sapiens, UniProt Q5S007).
T4 construct: purchased Thermo Fisher
The assay is described as follows: Biochemical assay for LRRK2 (coupled pyruvate kinase/lactate dehydrogenase assay). The settings on record: 26.4 nM LRRK2 (residues 970-2528), 0.1 mM peptide substrate, 1 mM ATP.

T4 sequence (Q5S007 with tags, fused parts or gaps): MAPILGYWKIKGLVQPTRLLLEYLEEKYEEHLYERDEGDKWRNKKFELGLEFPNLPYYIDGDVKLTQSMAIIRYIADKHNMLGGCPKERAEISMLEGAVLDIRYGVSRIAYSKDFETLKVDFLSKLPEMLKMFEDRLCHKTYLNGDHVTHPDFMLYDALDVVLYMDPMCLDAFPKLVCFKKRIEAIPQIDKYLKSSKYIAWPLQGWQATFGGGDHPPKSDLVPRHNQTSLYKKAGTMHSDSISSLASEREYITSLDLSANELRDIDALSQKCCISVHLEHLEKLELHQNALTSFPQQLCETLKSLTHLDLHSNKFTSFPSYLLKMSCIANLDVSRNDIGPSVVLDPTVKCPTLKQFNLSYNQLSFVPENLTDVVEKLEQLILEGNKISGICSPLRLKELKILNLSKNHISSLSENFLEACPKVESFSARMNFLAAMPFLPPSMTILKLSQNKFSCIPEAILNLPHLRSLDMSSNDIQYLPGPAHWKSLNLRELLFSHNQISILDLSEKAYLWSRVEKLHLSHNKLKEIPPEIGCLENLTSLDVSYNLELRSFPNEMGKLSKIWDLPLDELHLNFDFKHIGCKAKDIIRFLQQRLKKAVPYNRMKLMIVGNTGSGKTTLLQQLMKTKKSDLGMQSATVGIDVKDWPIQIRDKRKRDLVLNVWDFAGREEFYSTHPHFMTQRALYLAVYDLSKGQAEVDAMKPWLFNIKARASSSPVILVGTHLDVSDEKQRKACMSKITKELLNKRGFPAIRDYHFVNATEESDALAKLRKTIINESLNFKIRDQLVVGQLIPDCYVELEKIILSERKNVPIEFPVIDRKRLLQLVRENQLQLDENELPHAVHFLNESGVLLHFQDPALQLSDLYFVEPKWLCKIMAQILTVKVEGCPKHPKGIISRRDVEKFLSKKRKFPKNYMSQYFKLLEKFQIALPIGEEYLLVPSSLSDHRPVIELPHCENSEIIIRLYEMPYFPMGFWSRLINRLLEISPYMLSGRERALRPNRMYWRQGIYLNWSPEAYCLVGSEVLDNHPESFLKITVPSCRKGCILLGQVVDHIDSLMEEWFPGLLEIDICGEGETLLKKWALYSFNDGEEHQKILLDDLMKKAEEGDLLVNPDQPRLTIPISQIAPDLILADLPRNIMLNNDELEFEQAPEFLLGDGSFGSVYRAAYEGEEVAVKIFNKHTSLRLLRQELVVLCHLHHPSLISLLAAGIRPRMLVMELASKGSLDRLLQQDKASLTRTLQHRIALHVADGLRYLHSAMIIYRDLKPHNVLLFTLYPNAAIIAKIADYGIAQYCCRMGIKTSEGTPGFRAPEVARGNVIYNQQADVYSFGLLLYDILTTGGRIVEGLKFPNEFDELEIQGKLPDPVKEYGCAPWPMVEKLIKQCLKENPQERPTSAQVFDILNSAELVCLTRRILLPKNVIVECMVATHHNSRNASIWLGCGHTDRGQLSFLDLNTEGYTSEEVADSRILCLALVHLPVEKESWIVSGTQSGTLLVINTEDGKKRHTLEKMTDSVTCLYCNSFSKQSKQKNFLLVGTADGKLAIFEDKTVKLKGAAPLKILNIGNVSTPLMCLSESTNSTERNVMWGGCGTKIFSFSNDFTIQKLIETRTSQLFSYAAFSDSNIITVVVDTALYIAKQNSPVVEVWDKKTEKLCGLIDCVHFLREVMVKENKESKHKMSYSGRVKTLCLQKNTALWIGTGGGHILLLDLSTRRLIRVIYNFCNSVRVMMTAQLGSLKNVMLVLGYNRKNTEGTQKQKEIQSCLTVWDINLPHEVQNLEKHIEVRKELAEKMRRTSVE

For `Cc1nn([C@@H]2CCN(C)C2)cc1Nc1ncc(C(F)(F)F)c(NCCCN2CCOCCC2=O)n1` [Example 133], the IC50 at ULK1 kinase [1] lay within 1 to 25 nM; in assay [2], 10 to 100 nM; in assay [3] it was 10 to 100 nM.

On to `Cc1nn([C@@H]2CCN(C)C2)cc1Nc1ncc(Br)c(NCCCN2CCCCC2=O)n1` [Example 44], for which the IC50 was in the range of 25 to 100 nM against ULK1 kinase [1], 100 to 300 nM in assay [2], 100 to 500 nM at ULK2 kinase and 100 to 300 nM in assay [3].

Regarding `Cc1nn(C2CCN(C(C)C)CC2)cc1Nc1ncc(Cl)c(NCCCN2CCCOC2=O)n1` [Example 72], the results for the IC50 (in assay [2]; in assay [3]; against ULK1 kinase [4]) were 100 to 300 nM, greater than 600 nM and 25 to 100 nM, respectively.

In the case of `CCN1CCC(n2cc(Nc3cc(NCCCN4CCCCC4=O)c(C(F)(F)F)cn3)cn2)CC1` [Example 16], the IC50 against ULK1 kinase [1] was 25 to 100 nM; in assay [2], 10 to 100 nM; at ULK2 kinase it was 100 to 500 nM; in assay [3], 100 to 300 nM.

For the compound `O=C1CCCCCN1CCCNc1nc(Nc2cnn(CCN3CCOCC3)c2)ncc1C(F)(F)F` [Example 96], the IC50 was 25 to 100 nM against ULK1 kinase [1], 100 to 300 nM in assay [2] and 300 to 600 nM in assay [3].

On to `Cc1nn(C2CCN(C(C)C)CC2)cc1Nc1ncc(Br)c(NCCCN2CCCOC2=O)n1` [Example 71], for which the IC50 was 100 to 300 nM in assay [2], greater than 600 nM in assay [3] and 25 to 100 nM on ULK1 kinase [4].

For the compound `CCc1nn(C2CCN(CC)CC2)cc1Nc1ncc(Br)c(NCCCN2CCCCC2=O)n1` [Example 54], the figures for the IC50 (against ULK1 kinase [1]; in assay [2]; in assay [3]) were 25 to 100 nM, 100 to 300 nM and 100 to 300 nM, respectively.

For `Cc1nn([C@@H]2CCNC2)cc1Nc1ncc(Br)c(NCCCN2CCCCC2=O)n1` [Example 60], the IC50 was 25 to 100 nM at ULK1 kinase [1], 10 to 100 nM in assay [2], 100 to 500 nM on ULK2 kinase and greater than 600 nM in assay [3].

Regarding `Cc1nn(CCCN2CCCC2)cc1Nc1ncc(C(F)(F)F)c(NCCCN2CCCCCC2=O)n1` [Example 99], the IC50 at ULK1 kinase [1] lay in the range of 1 to 25 nM; in assay [2], 10 to 100 nM; at ULK2 kinase, 100 to 500 nM; in assay [3], 100 to 300 nM.

In the case of `Cc1nn([C@@H]2CCN(C)C2)cc1Nc1ncc(Br)c(NCCCN2CCOCCC2=O)n1` [Example 138], the IC50 in assay [2] lay within 100 to 300 nM; in assay [3], 300 to 600 nM; against ULK1 kinase [4] it was 25 to 100 nM.

For the compound `Cc1nn(CCCN2CCOCC2)cc1Nc1ncc(C(F)(F)F)c(NCCCN2CCOCCC2=O)n1` [Example 129], the IC50 against ULK1 kinase [1] is 100 to 500 nM; in assay [2], greater than 600 nM; on ULK2 kinase, greater than 500 nM; in assay [3], greater than 600 nM.

Turning to `Cc1nn(C2CCN(C)C2)cc1Nc1ncc(Br)c(NCCCN2CCCOCC2=O)n1` (stereo not shown) [Example 118], the IC50 on LRRK2 kinase lay within 1 to 100 nM; in assay [2], 100 to 300 nM; in assay [3] it was 300 to 600 nM; on ULK1 kinase [4], 25 to 100 nM.

Regarding `CN1CCC(n2ccc(Nc3cc(NCCCN4CCCCC4=O)c(C(F)(F)F)cn3)n2)CC1` [Example 173], the IC50 was in the range of 10 to 100 nM in assay [2], 10 to 100 nM in assay [3] and 1 to 25 nM against ULK1 kinase [4].

As for `CCN1CC[C@H](n2cc(Nc3ncc(C(F)(F)F)c(NCCCN4CCCCC4=O)n3)c(C)n2)C1` [Example 66], the IC50 lay in the range of 25 to 100 nM at ULK1 kinase [1], 100 to 300 nM in assay [2], 100 to 500 nM at ULK2 kinase and 100 to 300 nM in assay [3].
